From US11850266B2, “Cardiomyocytes and compositions and methods for producing the same” (President and Fellows of Harvard College, priority 2019, dated 2023)

Assays:
Format in all cases: cell-based, human
[1] = system: iPSC-derived cardiomyocytes; experiment: Spontaneous beating rate of cardiomyocytes; conditions: FIG. 29
Procedure: (§1) The BJRiPS cell line was used to generate preliminary data. BJRiPS cells were differentiated into cardiomyocytes according to previously published protocols (6). After the onset of beating (around day 10), cardiomyocytes were treated with vehicle (DMSO) or different concentrations of rapamycin, Torin1, or Torin2 for different time periods. Beating rate was counted manually. Some cells were harvested after 5-7 days of treatment for flow cytometry analysis. Other cells were harvested after 7 days of treatment for qPCR.

[2] = system: BJRiPS-derived cardiomyocytes; experiment: Example 3 preliminary qPCR of maturation genes in BJRiPS-derived cardiomyocytes; conditions: preliminary data, after differentiation
Procedure: as §1

[3] = system: iPSC-derived cardiomyocytes; experiment: Calcium transients (Fluo-4 AM) analysis with Vala Kinetic Image Cytometer; conditions: isoproterenol 1 μM, FIG. 14
Procedure: To perform calcium transients analysis, 50 ul of 10 ug/ml Hoeschst 33258 and 5 μM Fluo-4 AM was added to each well of a 96 well plate and incubated for 10 minutes at 37 degrees. Media was replaced with RPMI without phenol red supplemented with 1:100 Oxyfluor and 10 uM sodium lactate. Isoproterenol (1 μM) was added to the media for isoproterenol experiments. Pacing protocol was 5 seconds delay without pacing followed by 5 seconds pacing at 1 Hz and 5 seconds imaging without pacing. Imaging was performed using the Vala Kinetic Image Cytometer at 30 fps with 33.30 ms exposure at 14.25 intensity. Stimulation pulse was 5 ms with 15V voltage. Data was collected by CyteSeer analysis program.

[4] = system: TNNT2+ iPSC-derived cardiomyocytes; experiment: Cell cycle analysis by flow cytometry (Hoechst 33342 / pyronin Y) of TNNT2+ cardiomyocytes
Procedure: (§2) To prepare for differentiation, iPSCs were plated at a density between 20,000 to 80,000 cells (depending on the cell line) per well of a 12-well plate at four days prior to onset of differentiation. Cells were differentiated according to the protocol previously described by Lian et al. with some modifications (FIG. 1A) (1). Basal media was changed from StemFlex to RPMI/B27 on day 0 of differentiation. The GSK3 inhibitor, CHIR99021 (6 μM), was added for 48 hours from day 0 to day 2 of differentiation when cells were approximately 70-80% confluent. The Wnt antagonist IWP4 (5 μM) was added from days 2 to 4 of differentiation. Insulin (10 μg/ml) was added to the media starting on day 7 of differentiation, and media was changed every 2-3 days. In general, higher purity (TNNT2+) cardiomyocytes were observed when beating initiated prior to day 10 of differentiation, therefore only batches with onset of beating between days 7-10 of differentiation were included in this study. Beating cardiomyocytes were treated with Torin1 (200 nM, unless otherwise noted) or vehicle (0.02% dimethylsulfoxide (DMSO)) beginning at ˜2 days after onset of beating for 7 days (media changed with fresh Torin1 or DMSO every 2-3 days), unless otherwise noted. After Torin1 treatment, media was switched back to RPMI/B27/insulin and maintained with media change every 2-3 days until endpoint assay. In a few assays, fatty acids were added in the form of chemically defined lipids (Gibco) diluted 1:1000 simultaneous with Torin1 treatment. In some other assays, fetal bovine serum (10% FBS) was added to cells after completion of Torin treatment for 2-4 days.
Cells were dissociated and 5×10^5 to 1×10^6 cells were used per condition. For cell cycle analysis, 5×10^5 cells per condition were fixed in 70% cold ethanol for at least 2 hours to overnight at −20 degrees C. Cells were stained first with AlexaFluor 647-TNNT2 in Permeabilization Buffer (Thermo) then with Hoechst 33342 (2 μg/ml) and pyronin Y (4 μg/ml) for 20 minutes to distinguish between cells in G0, G1, and S-G2-M phases. For other stains, cells were fixed in eBioscience Intracellular Fixation buffer for 30 minutes followed washing twice in eBioscience Permeabilization Buffer and stained with the appropriate primary antibody (Table 2) in eBioscience FACS Staining buffer for 30-60 minutes. If a secondary antibody was used, cells were incubated with the appropriate secondary antibody (Table 2) for 30-60 minutes. The geometric mean fluorescence intensity (MFI) was quantified for TNNT2 and Kir2.1 antibodies. Data were acquired via a BD LSRII instrument and analyzed using FlowJo software.

[5] = system: iPSC-derived cardiomyocytes; experiment: Western analysis of protein expression in iPSC-derived cardiomyocytes
Procedure: as §2
Cells were lysed with lysis buffer (1% Triton X, 0.35% Na-deoxycholate, 1 mM EDTA, 1% protease inhibitor cocktail (Sigma), 1% phosphatase inhibitor cocktail 2 (Sigma), 1% phosphatase inhibitor cocktail 3 (Sigma), 1 mM phenylmethylsulfonyl fluoride (PMSF)) and total protein was measured with the Pierce BCA Protein Assay Kit. Samples with equal total protein quantities (prepared in Laemmli Sample Buffer (Bio-Rad)) were loaded into a Mini-Protean TGX Precast Gel (Bio-Rad) and electrophoresed for 1 hour at 100 V before transfer to a PVDF membrane using the Trans-Blot Turbo Transfer System (Bio-Rad). The Precision Plus Protein Dual Color Standards molecular weight ladder was used to estimate molecular weight of detected bands (Bio-Rad). Membranes were blocked with 5% milk or bovine serum albumin then incubated with the primary antibody (Table 2) overnight at 4 degrees C. followed by incubation with the horseradish peroxidase-conjugated secondary antibody (Table 2) for 1 hour at room temperature. The Amersham ECL Western Blotting Detection kit was used to detect the protein signal by chemiluminescence, and band densities were quantified using ImageJ software (NIH).

[6] = pifithrin-α 10 μM with Torin1 200 nM, 7 days, FIG. 5B

Nc1ccc(-c2ccc3ncc4ccc(=O)n(-c5cccc(C(F)(F)F)c5)c4c3c2)cn1 [Torin2]
beating rate of cardiomyocytes ([1]; Torin1 10, 50, 200 nM, Torin2 200 nM, from day 11 for 4-5 days): decreased the beating rate | beating rates at 1 week ([1]; dose-dependent, BJRiPS-CMs): significantly decreased beating rates | RNA expression of markers of maturation including TNNI3 and KCNJ2 [2]: increased RNA expression

CC(C)NCC(O)c1ccc(O)c(O)c1 (stereo not shown) [isoproterenol]
calcium peak rise time, peak decay time and FWHM time with isoproterenol stimulation [3]: further decreases

COc1ccc(C2=N[C@@H](c3ccc(Cl)cc3)[C@@H](c3ccc(Cl)cc3)N2C(=O)N2CCNC(=O)C2)c(OC(C)C)c1 [nutlin-3a]
percentage of quiescent (G0) TNNT2+ cardiomyocytes versus control ([4]; nutlin-3a 10 μM 24 hours, Torin1 200 nM 7 days, or both, BJRiPS-CMs, FIG. 6B): increased the percentage of quiescent (G0) TNNT2+ cardiomyocytes | percentage of TNNT2+ cardiomyocytes in G1 phase versus control ([4]; nutlin-3a 10 μM 24 hours, Torin1 200 nM 7 days, or both, FIG. 6B): decreased the percentage of TNNT2+ cardiomyocytes in G1 phase | p53 and TNNI3 protein expression ([5]; nutlin-3a 10 μM 24 hours, independently of Torin1, FIG. 6C): increased p53 and TNNI3 protein expression

Cc1ccc(C(=O)Cn2c3c(sc2=N)CCCC3)cc1 [pifithrin-α]
percentage of cardiomyocytes in the cell cycle (G1, S/G2/M) versus Torin1 alone [4, 6]: increased the percentage of cardiomyocytes in the cell cycle | percentage of quiescent (G0) cardiomyocytes versus Torin1 alone [4, 6]: decreased the percentage of quiescent (G0) cardiomyocytes | Torin1-induced increase in p53 and TNNI3 protein ([5]; pifithrin-α 10 μM with Torin1 200 nM, 7 days, FIGS. 5C-5D): inhibited the Torin1-induced increase in both p53 and TNNI3
